Results published in patent publication US7335756B2, “Retinoic acid metabolizing cytochrome P450” (Cytochroma Inc., priority 2001, dated 2008).
Several values for one entry are separate records, joined by “and”; a condition that tells them apart may be missing. Equal values may be shown once. Read-outs that look alike come from different tables or passages of the source.

Experiments:
P450RAI-3 [1] = molecular target: T1, P450RAI-3 (Homo sapiens, UniProt Q6V0L0, F447L); assay: [3H]-RA-metabolism inhibition (substrate competition) in P450RAI-3 stable transfected Hela cells; format: cell-based; set-up: expressed in transfected cells; details: 2 nM [3H]-RA
T1 sequence (Q6V0L0 1-522 F447L): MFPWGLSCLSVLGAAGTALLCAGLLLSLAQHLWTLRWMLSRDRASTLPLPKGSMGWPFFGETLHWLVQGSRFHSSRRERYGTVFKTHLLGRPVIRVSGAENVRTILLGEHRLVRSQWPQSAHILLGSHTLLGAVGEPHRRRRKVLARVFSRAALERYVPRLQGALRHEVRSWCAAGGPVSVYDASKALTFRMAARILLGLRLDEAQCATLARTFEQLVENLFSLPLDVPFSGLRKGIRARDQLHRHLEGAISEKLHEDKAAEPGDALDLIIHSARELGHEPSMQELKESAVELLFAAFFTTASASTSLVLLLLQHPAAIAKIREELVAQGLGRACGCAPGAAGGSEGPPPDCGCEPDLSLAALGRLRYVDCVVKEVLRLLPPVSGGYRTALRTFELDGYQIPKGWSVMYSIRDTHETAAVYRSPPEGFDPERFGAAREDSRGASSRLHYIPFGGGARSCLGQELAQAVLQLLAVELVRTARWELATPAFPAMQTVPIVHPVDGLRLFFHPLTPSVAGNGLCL
Experimental: (§1) The purpose of these experiments is to determine the specific substrates for P450RAI-3. […] The RA metabolism reaction was started by the addition of 50 ul of [^3H]-RA solution (20000 cpm, 2 nM final concentration). Cells were incubated for 3 hours in a humidified CO2 incubator at 37 degrees Celsius. The reaction was stopped by the addition of 5 ul of 10% acetic acid. Organic and aqueous soluble radio-labelled metabolites were extracted using the Bligh-Dyer procedure.

CYP26-B [2] = molecular target: T2, CYP26-B (Homo sapiens, UniProt Q9NR63); assay: [3H]-RA-metabolism inhibition, transient Cos-CYP26-B cell-based assay; details: at lower concentrations
T2 sequence (Q9NR63 1-512): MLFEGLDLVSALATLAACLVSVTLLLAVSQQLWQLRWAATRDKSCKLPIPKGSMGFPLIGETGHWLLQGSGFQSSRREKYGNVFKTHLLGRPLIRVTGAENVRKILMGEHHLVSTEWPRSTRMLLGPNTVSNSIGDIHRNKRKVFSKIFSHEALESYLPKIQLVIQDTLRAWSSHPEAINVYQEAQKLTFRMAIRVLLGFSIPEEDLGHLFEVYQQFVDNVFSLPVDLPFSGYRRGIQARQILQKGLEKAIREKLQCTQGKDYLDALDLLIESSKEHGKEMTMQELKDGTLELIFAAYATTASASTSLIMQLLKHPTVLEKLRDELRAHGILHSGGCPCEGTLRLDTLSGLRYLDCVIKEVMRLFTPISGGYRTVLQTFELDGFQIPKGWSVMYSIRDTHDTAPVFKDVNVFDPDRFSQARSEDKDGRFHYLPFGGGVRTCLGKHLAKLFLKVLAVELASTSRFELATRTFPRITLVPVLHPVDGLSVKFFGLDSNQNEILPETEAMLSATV

CYP26-B [3] = molecular target: T2, CYP26-B; assay: [3H]-RA-metabolism inhibition in mammalian microsomes from stable Hela-CYP26-B cells; format: biochemical; set-up: made in house; host or cells: HeLa cells stably expressing CYP26-B, microsomal fraction
Experimental: (§2) RA-metabolism activity was assessed using RA-metabolism microsomes-based assay and Bligh Dyer extraction as follows: Using an automatic repeating-pipette, gently thawed and homogenized microsomes were plated in a 48-well plate in final volume of 150 μl of storage buffer containing 0.5 mg/ml BSA. At indicated concentration 2 μl of compound solution was added to the assay and 2 μl of DMSO was added to MS control (quadruplet) and No-MS control. 50 μl of [^3H]-RA solution (30,000 cpm, 2 nM final concentration) was added. […] After 1-hour incubation the reaction was stopped by adding 5 μl of 10% acetic acid. Organic and aqueous soluble radio-labelled metabolites were extracted using the Bligh-Dyer procedure. Saturated activity obtained in presence of NADPH at 5 μg of microsomes, FIG. 14.
(§3) Microsomes prepared from either stable Hela-CYP26-B or transient P450RAI-3-transfected Cos cells were used.

P450RAI-3 [4] = molecular target: T1, P450RAI-3; assay: [3H]-RA-metabolism inhibition, transient Cos-P450RAI-3 cell-based assay; set-up: expressed in transfected cells; host or cells: COS-1 (transient, pcDNA-P450RAI-3, Fugene); details: at lower concentrations
Experimental: as §1

P450RAI-3 [5] = molecular target: T1, P450RAI-3; assay: ATRA and 9-cis-RA binding assay, Sf9-Bac-P450RAI-3 insect microsomes; details: for Kd: Table 4 prints no unit
P450RAI-3 [6] = molecular target: T1, P450RAI-3; assay: [3H]-RA-metabolism inhibition in Sf9-Bac-P450RAI-3 insect microsomes; format: biochemical; details: 2 nM [3H]-RA, NADPH, 1 hour, read-out: ID50 (nM) Sf9-P450RAI-3
Experimental: Microsomes from P450RAI-3 and CYP26B infected Sf-9 cells were made as follows: exponentially growing cells were harvested, washed with ice-cold PBS, counted then homogenized and sonicated in lysis buffer containing protease inhibitors cocktail (10^8 cells par 5 ml lyses buffer). Since P450RAI-3 is a microsomal cytochrome, it preferably uses NADPH cytochromic P450 reductase and a flavoprotein for activity. The microsomes were isolated by differential centrifugations (10 min at 800×g, than 10 min at 10,000×g and finally the postmitichondirial supernatant was centrifuged at 100,000×g for 60 min using ultracentrifuge (Beckman). The microsomal pellet was isolated and homogenized gently in the storage buffer containing protease inhibitors cocktail. Protein concentration in the microsomal preparation was determined using a […] reaction assay kit with BSA as standards (Pierce). The absorbance at 562 nm of standards (BSA at 1, 0.5, 0.25, 0.125, and 0.0625 mg/ml) and 3 dilutions of microsomes samples (⅕, 1/10 and 1/20) was determined using an automatic microplate reader (μQuant, BioTek instruments Inc.). The protein concentration directly calculated by the software (KCJunior). […] Microsomes were assessed for P450 content by carbon monoxide assay and total P450 content was determined at 3 nmol/ml. […]

P450RAI-3 [7] = molecular target: T1, P450RAI-3; assay: [3H]-RA-metabolism inhibition in mammalian microsomes from transient P450RAI-3-transfected Cos cells; format: biochemical; set-up: expressed in transfected cells; host or cells: COS-1 (transient, pcDNA-P450RAI-3, Fugene)
Experimental: RA-metabolism activity was assessed using RA-metabolism microsomes-based assay and Bligh Dyer extraction as follows: Using an automatic repeating-pipette, gently thawed and homogenized microsomes were plated in a 48-well plate in final volume of 150 μl of storage buffer containing 0.5 mg/ml BSA. At indicated concentration 2 μl of compound solution was added to the assay and 2 μl of DMSO was added to MS control (quadruplet) and No-MS control. 50 μl of [^3H]-RA solution (30,000 cpm, 2 nM final concentration) was added. The microsomes assay with the compounds and the [^3H]-ATRA were incubated first for 10 min at 37° C., and then the reaction started by adding 20 μl of NADPH solution (or 1 mM final). After 1-hour incubation the reaction was stopped by adding 5 μl of 10% acetic acid. Organic and aqueous soluble radio-labelled metabolites were extracted using the Bligh-Dyer procedure. Saturated activity obtained in presence of NADPH at 5 μg of microsomes, FIG. 14.
as §3

P450RAI-3 [8] = molecular target: T1, P450RAI-3; assay: LC/MS analysis of ATRA and 9-cis-RA metabolism in Hela-P450RAI-3 stable cells; details: 5 hours
Experimental: After 5 hours incubation at 37° C., cells were acidified with acetic acid and total retinoids were extracted using Ethyl acetate method. The organic upper layer was pooled and evaporated in speed-vacuum, and dried residues were dissolved in HPLC mobile solvent and analyzed in LC/MS.
The HPLC system consisted of a waters alliance 2690 separations module. Chromatography was obtained on an Eclipse X DB-C18 reverse phase column (5 um, 2.1×150 mm from HP). A gradient elution program was used using acetonitrile, water and 10% acetic acid. The flow was held at 0.2 ml/min.
Mass Spectrometry condition used for this work consisted of a Micro-mass Quatro Ultima Tandem triple quadruple mass spectrometer equipped with electrospray interface (ESI) and operated in a negative mode.

CYP26-B [9] = molecular target: T2, CYP26-B; assay: ATRA and 9-cis-RA binding assay, CYP26-B microsomes; set-up: made in house; host or cells: HeLa cells stably expressing CYP26-B, microsomal fraction; details: substrate 0.05 nM to 1000 nM, linear, Kd not determinable
CYP26-A = molecular target: T3, CYP26-A (Homo sapiens, UniProt O43174, E104D/H105D/L421A/M420S); assay: 9-cis-RA binding assay, CYP26-A; details: substrate 0.05 nM to 1000 nM, linear, Kd not determinable
T3 sequence (O43174 1-497 E104D/H105D/M420S/L421A): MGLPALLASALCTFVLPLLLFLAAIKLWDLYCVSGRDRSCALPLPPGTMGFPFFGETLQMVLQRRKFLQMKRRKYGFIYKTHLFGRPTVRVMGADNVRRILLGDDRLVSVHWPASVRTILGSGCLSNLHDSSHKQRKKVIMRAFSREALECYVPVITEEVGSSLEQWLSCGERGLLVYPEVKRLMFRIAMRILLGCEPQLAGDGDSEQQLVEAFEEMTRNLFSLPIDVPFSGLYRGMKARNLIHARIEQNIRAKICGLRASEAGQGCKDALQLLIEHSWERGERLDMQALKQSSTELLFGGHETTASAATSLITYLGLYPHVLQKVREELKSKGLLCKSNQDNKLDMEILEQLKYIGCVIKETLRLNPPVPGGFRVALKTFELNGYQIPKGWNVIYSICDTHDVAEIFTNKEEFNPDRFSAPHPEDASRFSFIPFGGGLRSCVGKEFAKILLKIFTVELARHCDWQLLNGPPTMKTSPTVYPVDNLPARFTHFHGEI

P450RAI-3 [10] = molecular target: T1, P450RAI-3; assay: ATRA / 9-cis-RA metabolism in pcDNA-P450RAI-3 transfected Cos-1 cells (Bligh-Dyer, HPLC); format: cell-based; set-up: expressed in transfected cells; host or cells: COS-1 (transient, pcDNA-P450RAI-3, Fugene); details: 2 nM radio-labeled substrate, 3 hours
Experimental: Mammalian Cos-1 cells were transfected with either pcDNA-P450RAI-3 or pcDNA-control vector using Fugene™ (Roche diagnostic) according to the manufacturers directions. After 48 hours post-tranfection, cells were washed with PBS and assessed for ATRA-metabolism activity as described Briefly, transfected cells were incubated with radio-labeled ^3[H]-ATRA (18000 cpm, 2 nM) for 3 hours. Organic and Water-soluble metabolites were extracted using Bligh-Dyer procedure and radioactivity counted (FIG. 10).
HPLC analysis of the organic metabolites: the Bligh-Dyer organic button-layer was dried out and residues were suspended in HPLC solvent and then analyzed by HPLC as described in [White et al, PNAS, vol 97, pg 6403-6408], FIG. 11.
Mammalian Cos-1 cells were transfected with either pcDNA-P450RAI-3 or pcDNA-control vector according to the manufacturers directions using Fugene (Roche). After 48 hours post-tranfection, cells were washed with PBS and assessed for 9-cis-RA-metabolism activity as described using Bligh-Dyer procedure. Briefly, transfected cells were incubated with radio-labeled ^3[H]-9-cis-RA (38000 cpm, 2 nM) for 3 hours. Organic and Water-soluble metabolites were extracted using Bligh-Dyer procedure and radioactivity counted, FIG. 19.

CYP26-B [11] = molecular target: T2, CYP26-B; assay: [3H]-RA-metabolism inhibition in Sf9-Bac-CYP26-B insect microsomes; format: biochemical; details: at much higher concentrations
Experimental: as §2

## CC1=C(/C=C/C(C)=C/C=C/C(C)=C/CO)C(C)(C)CCC1 [Retinol]
P450RAI-3 [1]
  substrate for CYP26-C: not substrates

## CC1=C(/C=C/C(C)=C/C=C/C(C)=C\C(=O)O)C(C)(C)CCC1 [13-cis-RA]
CYP26-B [2]
  competition / inhibition of CYP26-B: not a substrate
CYP26-B [3]
  competition for CYP26B: did not compete at lower concentrations
P450RAI-3 [4]
  competition / inhibition of P450RAI-3: not a substrate

## CC(=O)N1CCN(c2ccc(OCC3COC(Cn4ccnc4)(c4ccc(Cl)cc4Cl)O3)cc2)CC1 (stereo not drawn) [Ketoconazole, ketoconazole]
P450RAI-3 [5]; Kd, competition of ATRA binding to P450RAI-3, ketoconazole up to 100 μM, μM
  Kd: 70.5 µM and 75 µM
P450RAI-3 [5]; read-out: inhibition of ATRA binding to P450RAI-3
  inhibition at 10 µM: 15%
P450RAI-3 [6]
  IC50: > 10000 nM
P450RAI-3 [1]; read-out: ID50, competition for P450RAI-3 [3H]-RA metabolism
  IC50: 70 µM
CYP26-B [2]
  competition / inhibition of CYP26-B: inhibited
P450RAI-3 [7]; read-out: ID50 (nM) P450RAI-3
  IC50: 72000 nM
P450RAI-3 [7]; read-out: ID50 P450RAI-3
  IC50: 70000 nM
P450RAI-3 [4]
  competition / inhibition of P450RAI-3: weak inhibitor

## CC1=C(/C=C/C(C)=C\C=C\C(C)=C\C(=O)O)C(C)(C)CCC1 [9-cis-RA, 9-cis-retnoic acid]
P450RAI-3 [5]; read-out: Kd, substrate binding to P450RAI-3, insect microsomes, nM
  Kd: 0.069 µM
P450RAI-3 [5]; substrate 0.05 nM to 1000 nM
  binding to P450RAI-3 microsomes: Very good binding
P450RAI-3 [8]
  metabolites formed by P450RAI-3: hydroxy and oxo-metabolites
CYP26-B [9]
  binding to CYP26-B: weak binding
CYP26-A
  binding to CYP26-A: weak binding
P450RAI-3 [10]
  metabolism by P450RAI-3: converted 9-cis-RA to the hydoxy and oxo-metabolites and to more polar water-soluble metabolites
CYP26-B [11]
  competition for CYP26-B: very weak 9-cis-RA competition
P450RAI-3 [4]
  competition / inhibition of P450RAI-3: competed only for P450RAI-3

## CC1=C(/C=C/C(C)=C/C=C/C(C)=C/C=O)C(C)(C)CCC1 [Retinal]
P450RAI-3 [1]
  substrate for CYP26-C: not substrates
